In patent US7699995B2, “Water treatment method” (priority 2006, dated 2010):

Experiments:
[1] = test system: Mycobacterium chelonae (ATCC 14472); experiment: High resolution MIC test, pure culture, 1/10x TSB; format: cell-based; settings: M. chelonae, 24 hours at 37° C.
Experimental: (§1) The lowest concentration of microbicide required to inhibit bacteria was determined by a high resolution MIC test. Varying amounts of each microbicide were added to media in a 96-well microtiter plate. The media used for the MIC tests was 10% Trypicase Soy Broth ( 1/10× TSB). […] serial dilutions were performed on a Biomek 2000 Workstation to obtain a range of closely spaced concentrations of microbicides. A cell suspension of stationary phase microorganisms, adjusted to provide 10^6 colony forming units (CFU)/mL in each well for bacteria was added to the microtiter plate. The microtiter plates were incubated for 24 hours at 30° C. for Mycobacterium immunogenum and 37° C. for Mycobacterium chelonae. The presence or absence of microbial growth was determined by measuring the turbidity in each well using a Thermomax microplate reader set at an absorbance of 650 nm. The lowest concentration of compound in which no growth was observed was considered the MIC value for the microbicide. The MIC value for each microbicide was determined from the average of four determinations for bacteria.
(§2) Bacterial strains tested included Mycobacterium chelonae (ATCC 14472) and Mycobacterium immunogenum (ATCC 700505). Mycobacterial cultures were grown overnight at 30° C. (M. immunogenum) or 37° C. (M. chelonae), in a rotary shaking bath in Middlebrook […] with Middlebrook enrichment. A 1:20 dilution of the overnight culture was made into the appropriate test media and inoculated to give a final concentration of 10^6 to 10^7 CFU/ml.

[2] = test system: Mycobacterium immunogenum (ATCC 700505); experiment: High resolution MIC test, pure culture, 1/10x TSB; format: cell-based; settings: M. immunogenum, 24 hours at 30° C.
Experimental: as §1, §2

[3] = test system: Mycobacterium chelonae (ATCC 14472); experiment: MBC test, transfer from MIC plates to fresh media; format: cell-based; settings: M. chelonae, no survivors after 2 days in fresh media
Experimental: as §2
(§3) MBC tests were conducted by transferring samples from the MIC test samples into fresh media and observing for growth of the culture. Growth was determined as above. In this test using Biomek 2000 Workstation, 10 μl samples taken from the 96-well MIC plates were placed in […] of fresh growth media to determine the number of surviving organisms for the same gradient of biocide concentrations. These plates were incubated and read in the same fashion as the MIC plates.

[4] = test system: Mycobacterium immunogenum (ATCC 700505); experiment: MBC test, transfer from MIC plates to fresh media; format: cell-based; settings: M. immunogenum, no survivors after 2 days in fresh media
Experimental: as §2, §3

[5] = test system: natural, resident populations of Mycobacterium; experiment: Eradication of mycobacteria in naturally contaminated in-use metalworking fluids; format: cell-based; settings: for No. of Fluids with ≧99% Kill (2-log reduction): of six fluids, 48 hours
Experimental: A comparative study was conducted evaluating six metalworking fluid biocides versus natural, resident populations of Mycobacterium from six in-use metalworking fluids. CMIT/MIT, CMIT/MIT/MCC, MIT, BIT, triazine, and PCMC microbicides were tested under controlled laboratory conditions to determine their efficacy at the maximum manufacturer's recommended dose rate (Table 2). The metalworking fluids were known to contain high levels of mycobacteria prior to dosing with biocides. Samples were then dosed with biocides, incubated with agitation at room temperature and viable mycobacteria counts determined after 48 hours by plating onto Middlebrook 7H10 medium, with Tween 80, glycerin, cyclohexamide, chloramphenicol, and gentamycin to suppress the growth of unwanted microorganisms.
The six metalworking fluid samples containing mycobacteria study from Example 7, were also tested using the same biocides with dosing at 50% of the maximum manufacturer's recommended rate (Table 2) under the same conditions. These metalworking fluids were known to contain high levels of mycobacteria prior to dosing with biocides. Samples were then dosed with biocides, incubated with agitation at room temperature and viable mycobacteria counts determined after 48 hours by plating onto Middlebrook 7H10 medium, with Tween 80, glycerin, cyclohexamide, chloramphenicol, and gentamycin to suppress the growth of unwanted microorganisms.

[6] = buffer, pH 9
Experimental: pH 9 buffer containing 0.069 M boric acid, 0.017 M citric acid, 0.066 M sodium phosphate was prepared in distilled water. Biocide was dosed into the pH 9 buffer solution and stored at 70° C. in a heat block. The samples were examined for active ingredient concentration at the time points after 5 hours, and 1, 3, 7, 23, 30, 35 and 56 days. Initial biocide doses were 166 ppm MI, 199 ppm BIT and 150 ppm BNPD.
The samples were evaluated for active ingredient concentration via High Pressure Liquid Chromatography. Samples were taken from the heating blocks and allowed to cool to room temperature for 30 minutes. The samples were then diluted 1:20 in deionized water by adding 9.5 ml of deionized water to 0.5 grams of the samples in a 25 ml glass sample vial. The samples were mixed for 15 seconds and transferred to HPLC sample vials for analysis.

## OCCN1CN(CCO)CN(CCO)C1 [Triazine]
[1]
  Minimum Inhibitory Concentration: 43 ppm active
[2]
  Minimum Inhibitory Concentration: 39 ppm active
[3]
  Minimum Biocidal Concentration: 314 ppm active
[4]
  Minimum Biocidal Concentration: 314 ppm active
[5]; Fluid 1, 48 hours, 50% of recommended maximum dose
  Log Reduction in Mycobacterial Counts versus Control (no biocide): 0.00 log
[5]; Fluid 1, 48 hours, 100% of recommended maximum dose
  Log Reduction in Mycobacterial Counts versus Control (no biocide): 0.00 log
[5]; Fluid 2, 48 hours, 50% of recommended maximum dose
  Log Reduction in Mycobacterial Counts versus Control (no biocide): 0.00 log
[5]; Fluid 2, 48 hours, 100% of recommended maximum dose
  Log Reduction in Mycobacterial Counts versus Control (no biocide): 0.12 log
[5]; Fluid 3, 48 hours, 50% of recommended maximum dose
  Log Reduction in Mycobacterial Counts versus Control (no biocide): 0.00 log
[5]; Fluid 3, 48 hours, 100% of recommended maximum dose
  Log Reduction in Mycobacterial Counts versus Control (no biocide): 0.00 log
[5]; Fluid 4, 48 hours, 50% of recommended maximum dose
  Log Reduction in Mycobacterial Counts versus Control (no biocide): 0.00 log
[5]; Fluid 4, 48 hours, 100% of recommended maximum dose
  Log Reduction in Mycobacterial Counts versus Control (no biocide): 0.00 log
[5]; Fluid 5, 48 hours, 50% of recommended maximum dose
  Log Reduction in Mycobacterial Counts versus Control (no biocide): 0.06 log
[5]; Fluid 5, 48 hours, 100% of recommended maximum dose
  Log Reduction in Mycobacterial Counts versus Control (no biocide): 0.00 log
[5]; Fluid 6, 48 hours, 50% of recommended maximum dose
  Log Reduction in Mycobacterial Counts versus Control (no biocide): 0.00 log
[5]; Fluid 6, 48 hours, 100% of recommended maximum dose
  Log Reduction in Mycobacterial Counts versus Control (no biocide): 0.00 log
[5]; 50% of recommended maximum dose
  No. of Fluids with ≧99% Kill (2-log reduction): 0
[5]; 100% of recommended maximum dose
  No. of Fluids with ≧99% Kill (2-log reduction): 0

## O=[N+]([O-])C(Br)(CO)CO [BNPD, 2-bromo-2-nitro-propane-1,3-diol]
[6]; 0 h
  Percent Remaining after: 0: 100%
[6]; 5 h
  Percent Remaining after: 5 hr: 0%
[6]; 24 h
  Percent Remaining after: 1 day: 0%
